Results published in patent publication US12570642B2, “GLP-IR modulating compounds” (Gilead Sciences, Inc., priority 2021, dated 2026).

Biological target: GLP-1R (Homo sapiens, UniProt P43220)
Experiment: GLP-1R Activation - cAMP Assay
Format: cell-based
Conditions: cAMP increase in CHO cells stably expressing GLP-1R; each compound run on one of the two cAMP assays (Assay 1 or Assay 2, not specified)
How it was run: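 cAMP rise read by HTRF after 30 min agonist exposure (10-point titration, 37 °C) in HBSS/20 mM Hepes/0.1% BSA, following 1 h pre-incubation. Cells: stable GLP-1R CHO line, 1,000/well, seeded overnight. Sigmoidal fit of response vs log concentration gives EC50.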

Chain of GLP-1R (P43220 24-463): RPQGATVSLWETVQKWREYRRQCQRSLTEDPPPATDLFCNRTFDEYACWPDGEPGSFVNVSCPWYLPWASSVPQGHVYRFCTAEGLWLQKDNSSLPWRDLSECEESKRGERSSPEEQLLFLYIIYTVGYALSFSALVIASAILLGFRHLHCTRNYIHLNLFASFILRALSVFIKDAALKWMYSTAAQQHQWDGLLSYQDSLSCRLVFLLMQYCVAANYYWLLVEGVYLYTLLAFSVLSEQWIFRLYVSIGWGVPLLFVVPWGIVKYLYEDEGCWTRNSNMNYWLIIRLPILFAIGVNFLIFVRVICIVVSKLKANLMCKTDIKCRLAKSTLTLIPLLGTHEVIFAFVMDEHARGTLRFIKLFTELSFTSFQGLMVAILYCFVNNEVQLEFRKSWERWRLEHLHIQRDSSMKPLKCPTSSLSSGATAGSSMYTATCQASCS

| Compound | EC50 [nM] |
| --- | --- |
| CC1(C)COCC1n1c(Cc2cc(F)c(-c3cccc(OCc4cnc(Cl)cc4F)n3)cc2F)nc2ccc(C(=O)O)cc21 (stereo not drawn) [Example 295, 2-(4-(6-((6-chloro-4-fluoropyridin-3-yl)methoxy)pyridin-2-yl)-2,5-difluorobenzyl)-1-(4,4-dimethyltetrahydrofuran-3-yl)-1H-benzo[d]imidazole-6-carboxylic acid] | 0.042 |
| CC1(C)COCC1n1c(Cc2cc(F)c(-c3cccc(OCc4ncc(Cl)cc4F)n3)cc2F)nc2ccc(C(=O)O)cc21 (stereo not drawn) [Example 296, 2-(4-(6-((5-chloro-3-fluoropyridin-2-yl)methoxy)pyridin-2-yl)-2,5-difluorobenzyl)-1-(4,4-dimethyltetrahydrofuran-3-yl)-1H-benzo[d]imidazole-6-carboxylic acid] | 0.066 |
| CC1(C)COC[C@H]1n1c(Cn2cc(F)c(-c3cccc(OCc4ccc(Cl)cc4)n3)cc2=O)nc2ccc(C(=O)O)cc21 [Example 297, (S)-2-((6-((4-chlorobenzyl)oxy)-5′-fluoro-2′-oxo-[2,4′-bipyridin]-1′(2′H)-yl)methyl)-1-(4,4-dimethyltetrahydrofuran-3-yl)-1H-benzo[d]imidazole-6-carboxylic acid] | 0.151 |
| CC1(C)COC[C@H]1n1c(Cc2ccc(-c3ccnc(OCc4ccc(C#N)cc4F)n3)cc2F)nc2c(F)cc(C(=O)O)cc21 [Example 298, (S)-2-(4-(2-((4-cyano-2-fluorobenzyl)oxy)pyrimidin-4-yl)-2-fluorobenzyl)-1-(4,4-dimethyltetrahydrofuran-3-yl)-4-fluoro-1H-benzo[d]imidazole-6-carboxylic acid] | 0.663 |
| CC1(C)COC[C@H]1n1c(Cc2cc(F)c(-c3ccc(F)c(OCc4ccc(Cl)cc4)n3)cc2F)nc2ccc(C(=O)O)cc21 [Example 299, (S)-2-(4-(6-((4-chlorobenzyl)oxy)-5-fluoropyridin-2-yl)-2,5-difluorobenzyl)-1-(4,4-dimethyltetrahydrofuran-3-yl)-1H-benzo[d]imidazole-6-carboxylic acid] | 0.342 |
| CC1(C)COC[C@H]1n1c(Cn2cc(F)c(-c3ccc(F)c(OCc4ccc(Cl)cc4)n3)cc2=O)nc2ccc(C(=O)O)cc21 [Example 300, (S)-2-((6-((4-chlorobenzyl)oxy)-5,5′-difluoro-2′-oxo-[2,4′-bipyridin]-1′(2′H)-yl)methyl)-1-(4,4-dimethyltetrahydrofuran-3-yl)-1H-benzo[d]imidazole-6-carboxylic acid] | 0.268 |
| Cc1cc(Cc2nc3ccc(C(=O)O)cc3n2[C@@H]2COCC2(C)C)c(Cl)cc1-c1ccnc(OCc2ccc(C#N)cc2)n1 [Example 301, (S)-2-(2-chloro-4-(2-((4-cyanobenzyl)oxy)pyrimidin-4-yl)-5-methylbenzyl)-1-(4,4-dimethyltetrahydrofuran-3-yl)-1H-benzo[d]imidazole-6-carboxylic acid] | 0.714 |
| CC1(C)COC[C@H]1n1c(Cc2c(F)cc(-c3cccc(OCc4ccc(Cl)cc4F)n3)cc2F)nc2ccc(C(=O)O)cc21 [Example 302, (S)-2-(4-(6-((4-chloro-2-fluorobenzyl)oxy)pyridin-2-yl)-2,6-difluorobenzyl)-1-(4,4-dimethyltetrahydrofuran-3-yl)-1H-benzo[d]imidazole-6-carboxylic acid] | 0.181 |
| CC1(C)COC[C@H]1n1c(Cc2c(F)cc(-c3ccc(F)c(OCc4ccc(Cl)cc4F)n3)cc2F)nc2ccc(C(=O)O)cc21 [Example 303, (S)-2-(4-(6-((4-chloro-2-fluorobenzyl)oxy)-5-fluoropyridin-2-yl)-2,6-difluorobenzyl)-1-(4,4-dimethyltetrahydrofuran-3-yl)-1H-benzo[d]imidazole-6-carboxylic acid] | 0.17 |
| CC1(C)COC[C@H]1n1c(Cc2c(F)cc(-c3cccc(OCc4ccc(Cl)cc4F)n3)cc2F)nc2c(F)cc(C(=O)O)cc21 [Example 305, (S)-2-(4-(6-((4-chloro-2-fluorobenzyl)oxy)pyridin-2-yl)-2,6-difluorobenzyl)-1-(4,4-dimethyltetrahydrofuran-3-yl)-4-fluoro-1H-benzo[d]imidazole-6-carboxylic acid] | 0.125 |
| CC1(C)COC[C@H]1n1c(Cc2c(F)cc(-c3ccc(F)c(OCc4ccc(Cl)cc4F)n3)cc2F)nc2c(F)cc(C(=O)O)cc21 [Example 306, (S)-2-(4-(6-((4-chloro-2-fluorobenzyl)oxy)-5-fluoropyridin-2-yl)-2,6-difluorobenzyl)-1-(4,4-dimethyltetrahydrofuran-3-yl)-4-fluoro-1H-benzo[d]imidazole-6-carboxylic acid] | 0.123 |
| CC1(C)COC[C@H]1n1c(Cc2c(F)cc(-c3ccc(F)c(OCc4ccc(C#N)cc4F)n3)cc2F)nc2c(F)cc(C(=O)O)cc21 [Example 307, (S)-2-(4-(6-((4-cyano-2-fluorobenzyl)oxy)-5-fluoropyridin-2-yl)-2,6-difluorobenzyl)-1-(4,4-dimethyltetrahydrofuran-3-yl)-4-fluoro-1H-benzo[d]imidazole-6-carboxylic acid] | 0.508 |

Next, values leading:

| EC50 [nM] | Compound |
| --- | --- |
| 0.18 | CC1(C)COC[C@H]1n1c(Cc2ccc(-c3ccc(F)c(OCc4ccc(C#N)cc4)n3)cc2F)nc2c(F)cc(C(=O)O)cc21 [Example 308, (S)-2-(4-(6-((4-cyanobenzyl)oxy)-5-fluoropyridin-2-yl)-2-fluorobenzyl)-1-(4,4-dimethyltetrahydrofuran-3-yl)-4-fluoro-1H-benzo[d]imidazole-6-carboxylic acid] |
| 0.368 | COc1nnc(COc2cccc(-c3ccc(Cc4nc5c(F)cc(C(=O)O)cc5n4[C@@H]4COCC4(C)C)c(F)c3)n2)s1 [Example 309, (S)-1-(4,4-dimethyltetrahydrofuran-3-yl)-4-fluoro-2-(2-fluoro-4-(6-((5-methoxy-1,3,4-thiadiazol-2-yl)methoxy)pyridin-2-yl)benzyl)-1H-benzo[d]imidazole-6-carboxylic acid] |
| 0.032 | CC1(C)COC[C@H]1n1c(Cc2c(F)cc(-c3ccc(F)c(OCc4ccc(Cl)cc4)n3)c(F)c2F)nc2c(F)cc(C(=O)O)cc21 [Example 310, (S)-2-(4-(6-((4-chlorobenzyl)oxy)-5-fluoropyridin-2-yl)-2,3,6-trifluorobenzyl)-1-(4,4-dimethyltetrahydrofuran-3-yl)-4-fluoro-1H-benzo[d]imidazole-6-carboxylic acid] |
| 0.14 | CC1(C)COC[C@H]1n1c(Cc2c(F)cc(-c3ccc(F)c(OCc4ccc(C#N)cc4)n3)c(F)c2F)nc2c(F)cc(C(=O)O)cc21 [Example 316, (S)-2-(4-(6-((4-cyanobenzyl)oxy)-5-fluoropyridin-2-yl)-2,3,6-trifluorobenzyl)-1-(4,4-dimethyltetrahydrofuran-3-yl)-4-fluoro-1H-benzo[d]imidazole-6-carboxylic acid] |
| 0.451 | Cc1cc(Cc2nc3c(F)cc(C(=O)O)cc3n2[C@@H]2COCC2(C)C)c(Cl)cc1-c1ccnc(OCc2ccc(Cl)cc2F)n1 [Example 317, (S)-2-(2-chloro-4-(2-((4-chloro-2-fluorobenzyl)oxy)pyrimidin-4-yl)-5-methylbenzyl)-1-(4,4-dimethyltetrahydrofuran-3-yl)-4-fluoro-1H-benzo[d]imidazole-6-carboxylic acid] |
| 0.745 | Cc1cc(Cc2nc3ccc(C(=O)O)cc3n2[C@@H]2COCC2(C)C)c(Cl)cc1-c1ccnc(OCc2ccc(Cl)cc2F)n1 [Example 318, (S)-2-(2-chloro-4-(2-((4-chloro-2-fluorobenzyl)oxy)pyrimidin-4-yl)-5-methylbenzyl)-1-(4,4-dimethyltetrahydrofuran-3-yl)-1H-benzo[d]imidazole-6-carboxylic acid] |
| 0.346 | Cc1cc(Cc2nc3c(F)cc(C(=O)O)cc3n2[C@@H]2COCC2(C)C)c(Cl)cc1-c1ccnc(OCc2ccc(C#N)cc2F)n1 [Example 319, (S)-2-(2-chloro-4-(2-((4-cyano-2-fluorobenzyl)oxy)pyrimidin-4-yl)-5-methylbenzyl)-1-(4,4-dimethyltetrahydrofuran-3-yl)-4-fluoro-1H-benzo[d]imidazole-6-carboxylic acid] |
| 0.827 | Cc1cc(Cc2nc3ccc(C(=O)O)cc3n2[C@@H]2COCC2(C)C)c(Cl)cc1-c1ccnc(OCc2ccc(C#N)cc2F)n1 [Example 320, (S)-2-(2-chloro-4-(2-((4-cyano-2-fluorobenzyl)oxy)pyrimidin-4-yl)-5-methylbenzyl)-1-(4,4-dimethyltetrahydrofuran-3-yl)-1H-benzo[d]imidazole-6-carboxylic acid] |
| 0.083 | CC1(C)COC[C@H]1n1c(Cc2c(F)cc(-c3cccc(OCc4ccc(C#N)cc4F)n3)cc2F)nc2ccc(C(=O)O)cc21 [Example 321, (S)-2-(4-(6-((4-cyano-2-fluorobenzyl)oxy)pyridin-2-yl)-2,6-difluorobenzyl)-1-(4,4-dimethyltetrahydrofuran-3-yl)-1H-benzo[d]imidazole-6-carboxylic acid] |
| 0.346 | CC1(C)COC[C@H]1n1c(Cc2c(F)cc(-c3ccc(F)c(OCc4ccc(C#N)cc4F)n3)cc2F)nc2ccc(C(=O)O)cc21 [Example 322, (S)-2-(4-(6-((4-cyano-2-fluorobenzyl)oxy)-5-fluoropyridin-2-yl)-2,6-difluorobenzyl)-1-(4,4-dimethyltetrahydrofuran-3-yl)-1H-benzo[d]imidazole-6-carboxylic acid] |
| 0.734 | COc1cc(Cl)ncc1COc1nc(-c2cc(Cl)c(Cc3nc4ccc(C(=O)O)cc4n3[C@@H]3COCC3(C)C)cc2C)ccc1F [Example 323, (S)-2-(2-chloro-4-(6-((6-chloro-4-methoxypyridin-3-yl)methoxy)-5-fluoropyridin-2-yl)-5-methylbenzyl)-1-(4,4-dimethyltetrahydrofuran-3-yl)-1H-benzo[d]imidazole-6-carboxylic acid] |
| 0.049 | COc1cc(Cl)ncc1COc1nc(-c2ccc(Cc3nc4c(F)cc(C(=O)O)cc4n3[C@@H]3COCC3(C)C)c(F)c2)ccc1F [Example 324, (S)-2-(4-(6-((6-chloro-4-methoxypyridin-3-yl)methoxy)-5-fluoropyridin-2-yl)-2-fluorobenzyl)-1-(4,4-dimethyltetrahydrofuran-3-yl)-4-fluoro-1H-benzo[d]imidazole-6-carboxylic acid] |
